Experimental data published in US20060019270A1, “Global DNA methylation assessment using bisulfite PCR” (Board of Regents The University of Texas System, priority 2004, published 2006).

Tests used:
Type in all cases: cell-based, human
[1] = system: Alu element methylation in RKO cells; experiment: COBRA (MboI) of Alu repetitive element PCR, RKO cells treated with DAC; conditions: 5 μM DAC for three days, decrease from 26%
Description: (§1) Hct116, RKO and SW48, colon cancer cell lines (American Type Culture Collection, Manassas, Va.), were cultured using standard methods. Cells were treated with 5 μM 5-aza-2′deoxycytidine (DAC) for three days prior to being harvested. DNA from cell lines and peripheral blood leukocytes was extracted using phenol-chloroform extraction methods well known to one with skill on the art.
(§2) Bisulfite modification of genomic DNA is known in the art (see Clark et. al, 1994). In brief, 1.5 μg prepared 10 mM hydroquinone (Sigma) and 520 μl of 3M Sodium Bisulfite (Sigma) at pH=5.0 were added and mixed. The samples were overlayed with mineral oil to prevent evaporation and incubated at 50° C. for 16 hours. […] Bisulfite treated DNA was stored at −20° C. until ready for use.
(§3) Methylation analysis of Alu repetitive elements was performed initially by the COBRA assay. […] The digested PCR product was then separated by polyacrylamide gel electrophoresis or the PCR products were quantitated using a capillary electrophoresis system, an Agilent 2100 Bioanalyzer (Agilent Technologies, Palo Alto, Calif.).
(§4) In order to test whether Alu element […] LINE-1 methylation could approximate global methylation, COBRA, restriction digestion of the repetitive element PCR product, was used to quantitate DNA methylation in cell lines treated with 5-aza-2′deoxycytidine (DAC) (FIG. 3). […]

[2] = system: LINE-1 methylation in Hct116 cells; experiment: COBRA (HinfI) of LINE-1 PCR, Hct116 cells treated with DAC; conditions: 5 μM DAC for three days, 77% prior to treatment
Description: as §1
(§5) Bisulfite modification of genomic DNA is known in the art (see Clark et. al, 1994). In brief, 1.5 μg prepared 10 mM hydroquinone (Sigma) and 520 μl of 3M Sodium Bisulfite (Sigma) at pH=5.0 were added and mixed. The samples were overlayed with mineral oil to prevent evaporation and incubated at 50° C. for 16 hours. The bisulfite treated DNA was isolated using Wizard DNA Clean-Up System (Promega). The DNA was eluted by 50 μl of warm water and 5.5 μl of 3M NaOH were added for 5 minutes. The DNA was ethanol precipitated with glycogen as a carrier and resuspended in 20 μl water. Bisulfite treated DNA was stored at −20° C. until ready for use. […]
(§6) In order to test whether Alu element […] LINE-1 methylation could approximate global methylation, COBRA, restriction digestion of the repetitive element PCR product, was used to quantitate DNA methylation in cell lines treated with 5-aza-2′deoxycytidine (DAC) (FIG. 3). […] Thus both assays reliably detected inhibition of methylation induced by DAC. […]

[3] = system: LINE-1 methylation in SW48 cells; experiment: COBRA (HinfI) of LINE-1 PCR, SW48 cells treated with DAC; conditions: 5 μM DAC for three days, decrease from 59%
Description: as §1, §5, §6

[4] = system: LINE-1 methylation in Hct116, RKO and SW48 cell lines; experiment: LINE-1 methylation assay in cell lines treated with DAC (FIG. 14); conditions: compared with untreated
Description: Hct116, RKO and SW48 cell lines were treated with 5-aza-2′deoxycytidine (DAC). The genomic DNA was treated with sodium bisulfite and a non-specific PCR was performed which amplified a pool of LINE-1 repetitive elements. The PCR product was then digested with HinfI, which only cuts repetitive elements that were originally methylated. The LINE-1 PCR assays the methylation of two sites and therefore HinfI can generate five possible digestion products of 285, 247, 166, 128 and 38 bp (not seen). The digested PCR product was separated by polyacrylamide gel electrophoresis and stained with ethidium bromide. The PCR bands were quantitated and the amount of methylation is shown below each gel lane.
Methylation of the L1 promotor was investigated by COBRA assay (Xiong and Laird, 1997), and bisulfite treatment was performed as described above. A […] PCR was carried out in 60 mM Tris-HCl pH=8.8, 15 mM Ammonium Sulfate, 0.5 mM MgCl2, 1 mM dNTP mix, and 1 unit of Taq polymerase. PCR cycling conditions were 95° C. for 30 seconds, 50° C. for 30 seconds, and 72° C. for 30 seconds for 28 cycles. […] Gels were stained with ethidium bromide, imaged, and quantitated in a Bio-Rad Geldoc 2000 imager (Bio-Rad, Hercules, Calif.). […]

[5] = system: Alu element methylation in Hct116 cells; experiment: COBRA (MboI) of Alu repetitive element PCR, Hct116 cells treated with DAC; conditions: 5 μM DAC for three days, 29% prior to treatment
Description: as §1, §2, §3, §4

Nc1ncn([C@H]2C[C@H](O)[C@@H](CO)O2)c(=O)n1 [decitabine, 5-aza-2′-deoxycytidine]
Alu element methylation after treatment with DAC [1]: 21%
LINE-1 methylation after treatment with DAC [2]: 17%
LINE-1 methylation after treatment with DAC [3]: 41%
LINE-1 methylation in DAC treated cell lines [4]: lower degree of methylation
Alu element methylation after treatment with DAC [5]: 16%
